Experimental data reported in ChEMBL document CHEMBL4431314, “Computer-aided drug design guided by hydrogen/deuterium exchange mass spectrometry: A powerful combination for the development of potent and selective inhibitors of Group VIA calcium-independent phospholipase A2” (Bioorg Med Chem, 2016).

Key:
[1] = molecular target: T1, Cytosolic phospholipase A2 (Homo sapiens) (UniProt P47712); assay: Inhibition of C-terminal 6xHis-tagged human group IVA cytosolic PLA2 expressed in fall armyworm sf9 cells at 0.091 mol fraction using PAPC/arachidonyl-1-14C PAPC as substrate by mixed micelle modified Dole assay
T1 sequence (whole entry): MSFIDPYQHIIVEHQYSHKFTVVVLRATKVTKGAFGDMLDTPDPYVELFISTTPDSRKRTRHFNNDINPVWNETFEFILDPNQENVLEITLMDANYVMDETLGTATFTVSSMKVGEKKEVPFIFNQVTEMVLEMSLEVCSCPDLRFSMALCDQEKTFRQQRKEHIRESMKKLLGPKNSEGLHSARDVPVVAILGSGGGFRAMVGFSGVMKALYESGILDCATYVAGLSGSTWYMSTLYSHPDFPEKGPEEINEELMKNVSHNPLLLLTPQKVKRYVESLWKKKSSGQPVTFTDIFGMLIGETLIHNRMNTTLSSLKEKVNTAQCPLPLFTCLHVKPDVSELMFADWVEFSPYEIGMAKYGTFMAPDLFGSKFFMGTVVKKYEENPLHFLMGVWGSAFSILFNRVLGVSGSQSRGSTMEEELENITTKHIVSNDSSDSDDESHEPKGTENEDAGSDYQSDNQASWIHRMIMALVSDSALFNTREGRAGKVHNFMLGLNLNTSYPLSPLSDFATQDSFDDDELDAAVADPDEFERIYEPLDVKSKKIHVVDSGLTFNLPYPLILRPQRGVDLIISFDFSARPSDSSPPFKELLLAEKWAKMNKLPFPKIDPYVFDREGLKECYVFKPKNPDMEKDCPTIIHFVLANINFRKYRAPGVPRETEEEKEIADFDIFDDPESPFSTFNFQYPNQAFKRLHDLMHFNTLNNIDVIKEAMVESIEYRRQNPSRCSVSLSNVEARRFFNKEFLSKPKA

Homo sapiens = organism: Homo sapiens; assay: Inhibition of His-tagged human group V human secretory PLA2 expressed in Escherichia coli BL21 cells at 0.091 mol fraction using PAPC/arachidonyl-1-14C PAPC as substrate by mixed micelle modified Dole assay
[2] = molecular target: T2, 85/88 kDa calcium-independent phospholipase A2 (Homo sapiens) (UniProt O60733); assay: Inhibition of N-terminal 6xHis-tag human group VIA calcium-independent PLA2 expressed in fall armyworm sf9 cells at 0.091 mol fraction using PAPC/arachidonyl-1-14C PAPC as substrate by mixed micelle modified Dole assay
T2 sequence (whole entry): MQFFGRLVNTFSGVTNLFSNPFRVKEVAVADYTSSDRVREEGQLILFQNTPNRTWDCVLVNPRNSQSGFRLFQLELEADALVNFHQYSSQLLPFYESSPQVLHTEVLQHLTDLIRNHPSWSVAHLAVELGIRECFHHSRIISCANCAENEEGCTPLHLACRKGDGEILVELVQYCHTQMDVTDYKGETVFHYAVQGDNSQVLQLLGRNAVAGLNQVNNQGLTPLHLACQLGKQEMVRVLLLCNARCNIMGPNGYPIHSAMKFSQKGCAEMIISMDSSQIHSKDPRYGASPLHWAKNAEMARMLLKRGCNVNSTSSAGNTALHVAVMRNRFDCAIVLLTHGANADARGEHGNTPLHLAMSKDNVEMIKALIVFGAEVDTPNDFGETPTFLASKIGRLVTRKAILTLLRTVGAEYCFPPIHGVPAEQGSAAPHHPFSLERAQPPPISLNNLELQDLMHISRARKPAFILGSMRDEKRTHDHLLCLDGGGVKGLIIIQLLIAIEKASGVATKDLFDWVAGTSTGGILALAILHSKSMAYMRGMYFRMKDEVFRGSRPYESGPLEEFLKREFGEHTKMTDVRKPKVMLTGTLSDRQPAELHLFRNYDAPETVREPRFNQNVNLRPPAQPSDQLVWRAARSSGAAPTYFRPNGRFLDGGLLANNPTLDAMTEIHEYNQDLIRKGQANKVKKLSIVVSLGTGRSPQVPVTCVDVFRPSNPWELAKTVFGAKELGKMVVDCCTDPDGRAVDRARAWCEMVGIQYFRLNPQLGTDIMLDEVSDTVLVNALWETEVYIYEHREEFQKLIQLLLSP

[3] = molecular target: T2, 85/88 kDa calcium-independent phospholipase A2 (Homo sapiens); assay: Inhibition of N-terminal 6xHis-tag human group VIA calcium-independent PLA2 expressed in fall armyworm sf9 cells using PAPC/arachidonyl-1-14C PAPC as substrate by mixed micelle modified Dole assay
[4] = molecular target: T1, Cytosolic phospholipase A2 (Homo sapiens); assay: Inhibition of C-terminal 6xHis-tagged human group IVA cytosolic PLA2 expressed in fall armyworm sf9 cells using PAPC/arachidonyl-1-14C PAPC as substrate by mixed micelle modified Dole assay
[5] = molecular target: T2, 85/88 kDa calcium-independent phospholipase A2 (Homo sapiens); assay: Binding affinity to Group VIA calcium-independent PLA2 (unknown origin) (656 to 664 residues) assessed as change in average deuteration level preincubated for 30 mins followed by D2O addition measured after 10 to 10000 secs by DXMS analysis
[6] = molecular target: T2, 85/88 kDa calcium-independent phospholipase A2 (Homo sapiens); assay: Binding affinity to Group VIA calcium-independent PLA2 (unknown origin) (770 to 778 residues) assessed as change in average deuteration level preincubated for 30 mins followed by D2O addition measured after 10 to 10000 secs by DXMS analysis
[7] = molecular target: T2, 85/88 kDa calcium-independent phospholipase A2 (Homo sapiens); assay: Binding affinity to Group VIA calcium-independent PLA2 (unknown origin) (718 to 730 residues) assessed as change in average deuteration level preincubated for 30 mins followed by D2O addition measured after 10 to 10000 secs by DXMS analysis
[8] = molecular target: T2, 85/88 kDa calcium-independent phospholipase A2 (Homo sapiens); assay: Binding affinity to Group VIA calcium-independent PLA2 (unknown origin) (481 to 493 residues) assessed as change in average deuteration level preincubated for 30 mins followed by D2O addition measured after 10 to 10000 secs by DXMS analysis
[9] = molecular target: T2, 85/88 kDa calcium-independent phospholipase A2 (Homo sapiens); assay: Binding affinity to Group VIA calcium-independent PLA2 (unknown origin) (542 to 562 residues) assessed as change in average deuteration level preincubated for 30 mins followed by D2O addition measured after 10 to 10000 secs by DXMS analysis
[10] = molecular target: T2, 85/88 kDa calcium-independent phospholipase A2 (Homo sapiens); assay: Binding affinity to Group VIA calcium-independent PLA2 (unknown origin) (630 to 655 residues) assessed as change in average deuteration level preincubated for 30 mins followed by D2O addition measured after 10 to 10000 secs by DXMS analysis
[11] = molecular target: T2, 85/88 kDa calcium-independent phospholipase A2 (Homo sapiens); assay: Competitive-reversible inhibition of N-terminal 6xHis-tag human group VIA calcium-independent PLA2 expressed in fall armyworm sf9 cells using PAPC/arachidonyl-1-14C PAPC as substrate by mixed micelle modified Dole assay
[12] = molecular target: T2, 85/88 kDa calcium-independent phospholipase A2 (Homo sapiens); assay: Binding affinity to Group VIA calcium-independent PLA2 (unknown origin) (514 to 524 residues) assessed as change in average deuteration level preincubated for 30 mins followed by D2O addition measured after 10 to 10000 secs by DXMS analysis

inhibition [1] [%]	inhibition [2] [%]	pXI50 [2]	XI50 (mole fraction) [3]	SMILES	inhibition (Homo sapiens) [%]	other results
26	52	–	–	O=C(CSc1ccc([N+](=O)[O-])cc1)C(F)(F)F	17	–
76	99	2.2	0.006	CCCCCCOCC(=O)C(F)(F)F	35	–
91	99	2.3	0.0049	O=C(CSc1c(Cl)cccc1Cl)C(F)(F)F	43	–
24	46	–	–	O=C(CSc1ccc(F)cc1)C(F)(F)F	14	–
5	24	–	–	CCCCCCCCS(=O)(=O)CC(O)C(F)(F)F (stereo not given)	23	–
77	99	3.3	0.00052	CCCCCCSCC(=O)C(F)(F)F	33	–
5	15	–	–	CCCCCCS(=O)(=O)CC(O)C(F)(F)F (stereo not given)	16	–
2	32	–	–	CCCCCCCCCCCCS(=O)(=O)CC(O)C(F)(F)F (stereo not given)	80	–
91	98	2	0.011	O=C(CSc1cccc(Cl)c1)C(F)(F)F	46	–
70	93	2	0.011	COc1ccc(SCC(=O)C(F)(F)F)cc1	16	–
83	97	2.4	0.0043	CCCCCCCCCCCCSCC(=O)C(F)(F)F	87	–
58	43	–	–	CCCCCCOCC(O)C(F)(F)F (stereo not given)	35	–
14	71	–	–	CCCCCCS(=O)(=O)CC(O)(O)C(F)(F)F	0	–
60	39	–	–	O=C(c1ccc(C2CCCCC2)s1)C(F)(F)F	66	–
98	98	3.2	0.0007	CCCCCCCCCCCSCC(=O)C(F)(F)F	73	XI50 (mole fraction) [4]: 0.014
92	100	3.2	0.00059	O=C(CSCCc1ccccc1)C(F)(F)F	61	–
46	91	1.2	0.07	CCCCSCC(=O)C(F)(F)F	14	–
82	95	2	0.011	O=C(CSc1ccc(Cl)cc1)C(F)(F)F	23	–
75	89	–	–	O=C(CSc1ccccc1)C(F)(F)F	27	–
82	97	2.2	0.0071	O=C(CSc1ccc(Br)cc1)C(F)(F)F	35	–
61	95	2.1	0.009	Cc1ccc(SCC(=O)C(F)(F)F)cc1	18	–
34	52	–	–	CCCCCCCCCCCCS(=O)(=O)CC(O)(O)C(F)(F)F	44	–
19	82	–	–	CCCCCCCCS(=O)(=O)CC(O)(O)C(F)(F)F	18	–

SMILES	inhibition [1] [%]	inhibition [2] [%]	pXI50 [2]	XI50 (mole fraction) [3]	inhibition (Homo sapiens) [%]	other results
CCCCCCCCCCSCC(=O)C(F)(F)F	100	99	3.4	0.00041	78	XI50 (mole fraction) [4]: 0.008
CCCCCCCCSCC(=O)C(F)(F)F	82	99	3.7	–	68	Activity [5]: 12%; Activity [6]: 20%; Activity [7]: 13%; Activity [8]: 16%; Activity [9]: 18%; Activity [10]: 12%; XI50 (mole fraction) [11]: 0.0002; Activity [12]: 13%
O=C(C[Se]c1ccccc1)C(F)(F)F	18	46	–	–	44	–
